Reference: US8063048B2, “Acetylenyl-pyrazolo-pyrimidine derivatives” (Hoffmann-La Roche Inc., priority 2005, dated 2011)

melting point	SMILES
209 to 210 °C	COc1ncc(S(=O)(=O)NC(C)(C)CO)cc1C#Cc1cnn2c(C(F)(F)F)cc(-c3ccc(C(F)(F)F)cc3)nc12 [Example 18, 6-Methoxy-5-[7-trifluoromethyl-5-(4-trifluoromethyl-phenyl)-pyrazolo[1,5-a]pyrimidin-3-ylethynyl]-pyridine-3-sulfonic acid (2-hydroxy-1,1-dimethyl-ethyl)-amide]
264 °C	N#Cc1cc(C#Cc2cnn3c(C(F)(F)F)cc(-c4ccc(C(F)(F)F)cc4)nc23)cnc1N [Example 219, 2-Amino-5-[7-trifluoromethyl-5-(4-trifluoromethyl-phenyl)-pyrazolo[1,5-a]pyrimidin-3-ylethynyl]-nicotinonitrile]
184 to 186 °C	COCCNS(=O)(=O)c1ccc(C#Cc2cnn3c(C(F)F)cc(-c4ccc(C(F)(F)F)cc4)nc23)cc1 [Example 139, 4-[7-Difluoromethyl-5-(4-trifluoromethyl-phenyl)-pyrazolo[1,5-a]pyrimidin-3-ylethynyl]-N-(2-methoxy-ethyl)-benzenesulfonamide]
282 to 284 °C	Cc1cc(-c2ccc(C(F)(F)F)cc2)nc2c(C#Cc3ccc(S(N)(=O)=O)cc3)cnn12 [Example 150, 4-[7-Methyl-5-(4-trifluoromethyl-phenyl)-pyrazolo[1,5-a]pyrimidin-3-ylethynyl]-benzenesulfonamide]
184 to 186 °C	Cc1ccc(C#Cc2cnn3c(C(F)F)cc(-c4ccc(C(F)(F)F)cc4)nc23)cc1S(=O)(=O)NCCO [Example 61, 5-[7-Difluoromethyl-5-(4-trifluoromethyl-phenyl)-pyrazolo[1,5-a]pyrimidin-3-ylethynyl]-N-(2-hydroxy-ethyl)-2-methyl-benzenesulfonamide]
200 °C	Nc1cnc(C#Cc2cnn3c(C(F)(F)F)cc(-c4ccc(C(F)(F)F)cc4)nc23)cn1 [Example 286, 5-[7-Trifluoromethyl-5-(4-trifluoromethyl-phenyl)-pyrazolo[1,5-a]pyrimidin-3-ylethynyl]-pyrazin-2-ylamine]
169 to 170 °C	FC(F)(F)c1ccc(-c2cc(C(F)(F)F)c3ncc(C#Cc4cccnc4)n3c2)cc1 [Example 190, 3-Pyridin-3-ylethynyl-8-trifluoromethyl-6-(4-trifluoromethyl-phenyl)-imidazo[1,2-a]pyridine]
204 to 207 °C	CC(C)(CO)NS(=O)(=O)c1cnc(C#Cc2cnn3c(C4CC4)cc(-c4ccc(Cl)cc4)nc23)s1 [Example 64, 2-[5-(4-Chloro-phenyl)-7-cyclopropyl-pyrazolo[1,5-a]pyrimidin-3-ylethynyl]-thiazole-5-sulfonic acid (2-hydroxy-1,1-dimethyl-ethyl)-amide]
245 °C	CCOc1cccc(-c2cc(C(F)F)n3ncc(C#Cc4ccc(S(N)(=O)=O)cc4)c3n2)c1 [Example 187, 4-[7-Difluoromethyl-5-(3-ethoxy-phenyl)-pyrazolo[1,5-a]pyrimidin-3-ylethynyl]-benzenesulfonamide]
191 to 194 °C	O=S(=O)(NCCO)c1ccc(C#Cc2cnn3c(C(F)F)cc(-c4ccc(C(F)(F)F)cc4)nc23)cc1 [Example 140, 4-[7-Difluoromethyl-5-(4-trifluoromethyl-phenyl)-pyrazolo[1,5-a]pyrimidin-3-ylethynyl]-N-(2-hydroxy-ethyl)-benzenesulfonamide]
164 °C	Nc1ccc(C#Cc2cnn3c(C(F)F)cc(-c4cccc(C(F)(F)F)c4)nc23)cn1 [Example 254, 5-[7-Difluoromethyl-5-(3-trifluoromethyl-phenyl)-pyrazolo[1,5-a]pyrimidin-3-ylethynyl]-pyridin-2-ylamine]
216 °C	Nc1ccc(C#Cc2cnn3c(C(F)F)cc(-c4ccc(C(F)(F)F)cc4)nc23)cn1 [Example 188, 5-[7-Difluoromethyl-5-(4-trifluoromethyl-phenyl)-pyrazolo[1,5-a]pyrimidin-3-ylethynyl]-pyridin-2-ylamine]
243 to 246 °C	Nc1ncc(C#Cc2cnn3c(C4CC4)cc(-c4ccc(Cl)cc4)nc23)cn1 [Example 313, 5-[5-(4-Chloro-phenyl)-7-cyclopropyl-pyrazolo[1,5-a]pyrimidin-3-ylethynyl]-pyrimidin-2-ylamine]
230 to 232 °C	NS(=O)(=O)c1ccc(C#Cc2cnn3c(C(F)(F)F)cc(-c4ccc(C(F)(F)F)cc4)nc23)c(F)c1 [Example 45, 3-Fluoro-4-[7-trifluoromethyl-5-(4-trifluoromethyl-phenyl)-pyrazolo[1,5-a]pyrimidin-3-ylethynyl]-benzenesulfonamide]
177 °C	Nc1ccc(C#Cc2cnn3c(C(F)(F)F)cc(-c4cccc(C(F)(F)F)c4)nc23)cn1 [Example 259, 5-[7-Trifluoromethyl-5-(3-trifluoromethyl-phenyl)-pyrazolo[1,5-a]pyrimidin-3-ylethynyl]-pyridin-2-ylamine]
196 °C	NCCNS(=O)(=O)c1ccc(C#Cc2cnn3c(C(F)(F)F)cc(-c4cccc(C(F)(F)F)c4)nc23)s1 [Example 262, 5-[7-Trifluoromethyl-5-(3-trifluoromethyl-phenyl)-pyrazolo[1,5-a]pyrimidin-3-ylethynyl]-thiophene-2-sulfonic acid (2-amino-ethyl)-amide]
132 °C	CN(C)CCNS(=O)(=O)c1ccc(C#Cc2cnn3c(C(F)F)cc(-c4ccc(C(F)(F)F)cc4)nc23)s1 [Example 253, 5-[7-Difluoromethyl-5-(4-trifluoromethyl-phenyl)-pyrazolo[1,5-a]pyrimidin-3-ylethynyl]-thiophene-2-sulfonic acid (2-dimethylamino-ethyl)-amide]
241 to 242 °C	CS(=O)(=O)c1cncc(C#Cc2cnn3c(C(F)(F)F)cc(-c4ccc(C(F)(F)F)cc4)nc23)c1 [Example 38, 3-(5-Methanesulfonyl-pyridin-3-ylethynyl)-7-trifluoromethyl-5-(4-trifluoromethyl-phenyl)-pyrazolo[1,5-a]pyrimidine]
266 °C	CC(=O)Nc1ccc(C#Cc2cnn3c(C(F)(F)F)cc(-c4ccc(C(F)(F)F)cc4)nc23)cn1 [Example 225, N-{5-[7-Trifluoromethyl-5-(4-trifluoromethyl-phenyl)-pyrazolo[1,5-a]pyrimidin-3-ylethynyl]-pyridin-2-yl}-acetamide]
231 to 233 °C	NS(=O)(=O)c1ccc(C#Cc2cnn3c(C4CC4)cc(-c4ccc(C(F)(F)F)cc4)nc23)s1 [Example 83, 5-[7-Cyclopropyl-5-(4-trifluoromethyl-phenyl)-pyrazolo[1,5-a]pyrimidin-3-ylethynyl]-thiophene-2-sulfonic acid amide]
174 °C	O=S(=O)(c1ccc(C#Cc2cnn3c(C(F)F)cc(-c4cccc(C(F)(F)F)c4)nc23)s1)N(CCO)CCO [Example 264, 5-[7-Difluoromethyl-5-(3-trifluoromethyl-phenyl)-pyrazolo[1,5-a]pyrimidin-3-ylethynyl]-thiophene-2-sulfonic acid bis-(2-hydroxy-ethyl)-amide]
228 to 231 °C	CC(CO)(CO)NS(=O)(=O)c1cncc(C#Cc2cnn3c(C(F)(F)F)cc(-c4ccc(C(F)(F)F)cc4)nc23)c1 [Example 14, 5-[7-Trifluoromethyl-5-(4-trifluoromethyl-phenyl)-pyrazolo[1,5-a]pyrimidin-3-ylethynyl]-pyridine-3-sulfonic acid (2-hydroxy-1-hydroxymethyl-1-methyl-ethyl)-amide]
214 to 216 °C	Nc1ccc(C#Cc2cnn3c(C(F)(F)F)cc(-c4ccc(C(F)(F)F)cc4)nc23)nn1 [Example 246, 6-[7-Trifluoromethyl-5-(4-trifluoromethyl-phenyl)-pyrazolo[1,5-a]pyrimidin-3-ylethynyl]-pyridazin-3-ylamine]
235 °C	NS(=O)(=O)c1cnc(C#Cc2cnn3c(C(F)(F)F)cc(-c4ccc(C(F)(F)F)cc4)nc23)s1 [Example 29, 2-[7-Trifluoromethyl-5-(4-trifluoromethyl-phenyl)-pyrazolo[1,5-a]pyrimidin-3-ylethynyl]-thiazole-5-sulfonic acid amide]
226 to 227 °C	CC(C)(CO)NS(=O)(=O)c1cncc(C#Cc2cnn3c(C(F)(F)F)cc(-c4ccc(C(F)(F)F)cc4)nc23)c1 [Example 11, 5-[7-Trifluoromethyl-5-(4-trifluoromethyl-phenyl)-pyrazolo[1,5-a]pyrimidin-3-ylethynyl]-pyridine-3-sulfonic acid (2-hydroxy-1,1-dimethyl-ethyl)-amide]
238 to 240 °C	NS(=O)(=O)c1ccc(C#Cc2cnn3c(CO)cc(-c4ccc(Cl)cc4)nc23)cc1 [Example 155, 4-[5-(4-Chloro-phenyl)-7-hydroxymethyl-pyrazolo[1,5-a]pyrimidin-3-ylethynyl]-benzenesulfonamide]
194 to 196 °C	NS(=O)(=O)c1ccc(C#Cc2cnn3c(CO)cc(-c4ccc(Cl)cc4)nc23)s1 [Example 156, 5-[5-(4-Chloro-phenyl)-7-hydroxymethyl-pyrazolo[1,5-a]pyrimidin-3-ylethynyl]-thiophene-2-sulfonic acid amide]
200 to 202 °C	NS(=O)(=O)c1cccc(C#Cc2cnn3c(C4CC4)cc(-c4ccc(Cl)c(Cl)c4)nc23)c1 [Example 87, 3-[7-Cyclopropyl-5-(3,4-dichloro-phenyl)-pyrazolo[1,5-a]pyrimidin-3-ylethynyl]-benzenesulfonamide]
228 to 231 °C	Nc1ccc(C#Cc2cnn3c(C4CC4)cc(-c4ccc(C(F)(F)F)cc4)nc23)cn1 [Example 293, 5-[7-Cyclopropyl-5-(4-trifluoromethyl-phenyl)-pyrazolo[1,5-a]pyrimidin-3-ylethynyl]-pyridin-2-ylamine]
174 to 175 °C	Cc1ccc(C#Cc2cnn3c(C(F)(F)F)cc(-c4ccc(C(F)(F)F)cc4)nc23)cc1S(=O)(=O)NCCO [Example 34, N-(2-Hydroxy-ethyl)-2-methyl-5-[7-trifluoromethyl-5-(4-trifluoromethyl-phenyl)-pyrazolo[1,5-a]pyrimidin-3-ylethynyl]-benzenesulfonamide]
